Laboratory results published in PubChem BioAssay AID248 (DTP/NCI, 2004).
Inconclusive results and toxic doses are left out. No stated cut-off is given here; in the data, active means T/C of 150% or more; inactive means T/C below 125%.

System: L1210 leukemia ip in BDF1 mice, survival T/C
Assay: NCI In Vivo Anticancer Drug Screen. Data for tumor model L1210 Leukemia (intraperitoneal) in B6D2F1 (BDF1) mice
Settings: endpoint: mean survival time, higher = longer survival
Method in brief: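 Value reflects the ratio of survival in compound-treated mice to survival in vehicle-treated controls, with both groups carrying the same transplanted tumor.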

[1] = dose: 100.0 mg/kg/injection, schedule: Q04DX002 (ip), vehicle: saline
[2] = dose: 200.0 mg/kg/injection, schedule: Q04DX002 (ip), vehicle: saline
[3] = dose: 400.0 mg/kg/injection, schedule: Q04DX002 (ip), vehicle: saline
[4] = dose: 100.0 mg/kg/injection, schedule: Q04DX003 (ip), vehicle: saline with Tween-80
[5] = dose: 200.0 mg/kg/injection, schedule: Q04DX003 (ip), vehicle: saline with Tween-80
[6] = dose: 400.0 mg/kg/injection, schedule: Q04DX003 (ip), vehicle: saline with Tween-80
[7] = dose: 100.0 mg/kg/injection, schedule: Q01DX001 (ip), vehicle: Klucel (hydroxypropylcellulose) (HPC)
[8] = dose: 100.0 mg/kg/injection, schedule: Q01DX009 (ip), vehicle: saline with Tween-80
[9] = dose: 200.0 mg/kg/injection, schedule: Q01DX009 (ip), vehicle: saline with Tween-80
[10] = dose: 400.0 mg/kg/injection, schedule: Q01DX009 (ip), vehicle: saline with Tween-80
[11] = dose: 50.0 mg/kg/injection, schedule: Q01DX001 (ip), vehicle: saline
[12] = dose: 100.0 mg/kg/injection, schedule: Q01DX001 (ip), vehicle: saline
[13] = dose: 200.0 mg/kg/injection, schedule: Q01DX001 (ip), vehicle: saline
[14] = dose: 400.0 mg/kg/injection, schedule: Q01DX001 (ip), vehicle: saline
[15] = dose: 100.0 mg/kg/injection, schedule: Q01DX009 (ip), vehicle: saline
[16] = dose: 100.0 mg/kg/injection, schedule: Q04DX003 (ip), vehicle: saline
[17] = dose: 200.0 mg/kg/injection, schedule: Q04DX003 (ip), vehicle: saline
[18] = dose: 400.0 mg/kg/injection, schedule: Q04DX003 (ip), vehicle: saline
[19] = dose: 100.0 mg/kg/injection, schedule: Q01DX001 (ip), vehicle: carboxymethylcellulose (CMC)
[20] = dose: 200.0 mg/kg/injection, schedule: Q01DX001 (ip), vehicle: carboxymethylcellulose (CMC)

Measured: T/C

CCOCCOCCOC(C)Oc1ccc(Br)cc1 (stereo not given)
inactive: [1] 103 % of control | [2] 103 % of control | [3] 100 % of control

Cc1cc(C)cc(C(O)(c2cc(C)cc(C)c2)c2cc(C)cc(C)c2)c1
inactive: [4] 102 % of control | [5] 116 % of control | [6] 94 % of control

COC(=O)C1=C(C)NC(=O)NC1c1ccc(N(CCCl)CCCl)c(OC)c1 (stereo not given)
inactive: dose: 3.0 mg/kg/injection, schedule: Q01DX009 (ip), vehicle: Klucel (hydroxypropylcellulose) (HPC) 115 % of control | dose: 6.0 mg/kg/injection, schedule: Q01DX009 (ip), vehicle: Klucel (hydroxypropylcellulose) (HPC) 117 % of control | dose: 12.0 mg/kg/injection, schedule: Q01DX009 (ip), vehicle: Klucel (hydroxypropylcellulose) (HPC) 112 % of control | [7] 109 % of control

O=c1c(N=Nc2ccc(Br)cc2)c(O)n(-c2ccc(Br)cc2)c(=S)n1-c1ccccc1
inactive: dose: 37.5 mg/kg/injection, schedule: Q01DX001 (ip), vehicle: Klucel (hydroxypropylcellulose) (HPC) 108 % of control | dose: 75.0 mg/kg/injection, schedule: Q01DX001 (ip), vehicle: Klucel (hydroxypropylcellulose) (HPC) 110 % of control | dose: 150.0 mg/kg/injection, schedule: Q01DX001 (ip), vehicle: Klucel (hydroxypropylcellulose) (HPC) 102 % of control

CC12CCC3=C(CCc4cc(O)ccc43)C1CCC2=O (stereo not given)
inactive: dose: 75.0 mg/kg/injection, schedule: Q01DX001 (ip), vehicle: steriod suspending solution 91 % of control | dose: 150.0 mg/kg/injection, schedule: Q01DX001 (ip), vehicle: steriod suspending solution 96 % of control | dose: 300.0 mg/kg/injection, schedule: Q01DX001 (ip), vehicle: steriod suspending solution 101 % of control

CC1=CC(=O)C(C)(C)C=C1
inactive: [8] 104 % of control | [4] 108 % of control | [9] 101 % of control | [5] 100 % of control | [10] 96 % of control

O=C(Nc1ccc(Cl)cc1Cl)Nc1ccc(Cl)cc1Cl
inactive: dose: 100.0 mg/kg/injection, schedule: Q04DX002 (ip), vehicle: Klucel (hydroxypropylcellulose) (HPC) 91 % of control | dose: 200.0 mg/kg/injection, schedule: Q04DX002 (ip), vehicle: Klucel (hydroxypropylcellulose) (HPC) 94 % of control

O=C(CCCC(=O)NNC(=S)Nc1cccc2ccccc12)NNC(=S)Nc1cccc2ccccc12
inactive: [11] 98 % of control | [12] 93 % of control | [13] 96 % of control | [14] 96 % of control

COc1ccc(C2NC(=S)N3C(c4ccc(OC)c(OC)c4)NC(=S)N23)cc1OC (stereo not given)
inactive: dose: 100.0 mg/kg/injection, schedule: Q01DX009 (ip), vehicle: gum acacia 88 % of control | dose: 100.0 mg/kg/injection, schedule: Q04DX003 (ip), vehicle: gum acacia 95 % of control | dose: 200.0 mg/kg/injection, schedule: Q01DX009 (ip), vehicle: gum acacia 88 % of control | dose: 200.0 mg/kg/injection, schedule: Q04DX003 (ip), vehicle: gum acacia 89 % of control | dose: 400.0 mg/kg/injection, schedule: Q01DX009 (ip), vehicle: gum acacia 90 % of control

Cc1ccc(C(=O)/C(Cl)=N/O)cc1
inactive: dose: 50.0 mg/kg/injection, schedule: Q01DX001 (ip), vehicle: other 96 % of control | dose: 100.0 mg/kg/injection, schedule: Q01DX001 (ip), vehicle: other 104 % of control

CCC[N+](C)(C)CC[N+](C)(C)CCC
inactive: [12] 99 % of control | [13] 103 % of control | [14] 101 % of control

CCCOC(=O)c1ccc([N+](=O)[O-])o1
inactive: [7] 95 % of control | dose: 200.0 mg/kg/injection, schedule: Q01DX001 (ip), vehicle: Klucel (hydroxypropylcellulose) (HPC) 92 % of control

c1ccc(-c2oc(-c3ccccc3)c3c(-c4ccccc4)cccc23)cc1
inactive: dose: 100.0 mg/kg/injection, schedule: Q04DX002 (ip), vehicle: saline with Tween-80 105 % of control | dose: 400.0 mg/kg/injection, schedule: Q04DX002 (ip), vehicle: saline with Tween-80 98 % of control

COC(=O)c1cc(NS(=O)(=O)c2ccc(N)cc2)cc(C(=O)OC)c1
inactive: [12] 93 % of control | [13] 95 % of control | [14] 97 % of control

CCCCCCC(Cl)CCl (stereo not given)
inactive: dose: 50.0 mg/kg/injection, schedule: Q01DX009 (ip), vehicle: saline 97 % of control | [15] 110 % of control | [16] 103 % of control | [17] 115 % of control | [18] 108 % of control

Nc1ccccc1SC(CC(=O)c1ccccc1)c1ccc([N+](=O)[O-])cc1 (stereo not given)
inactive: dose: 100.0 mg/kg/injection, schedule: Q01DX005 (ip), vehicle: Klucel (hydroxypropylcellulose) (HPC) 101 % of control | dose: 100.0 mg/kg/injection, schedule: Q01DX009 (ip), vehicle: Klucel (hydroxypropylcellulose) (HPC) 97 % of control | dose: 200.0 mg/kg/injection, schedule: Q01DX009 (ip), vehicle: Klucel (hydroxypropylcellulose) (HPC) 91 % of control | dose: 400.0 mg/kg/injection, schedule: Q01DX005 (ip), vehicle: Klucel (hydroxypropylcellulose) (HPC) 86 % of control | dose: 400.0 mg/kg/injection, schedule: Q01DX009 (ip), vehicle: Klucel (hydroxypropylcellulose) (HPC) 97 % of control

C[N+]1=C(C(=O)c2ccc(O)cc2)c2ccc(O)cc2CC1
inactive: [11] 107 % of control | [12] 106 % of control | [13] 119 % of control

CC(C)(C)CC(C)(C)c1ccc(O)cc1
inactive: dose: 62.5 mg/kg/injection, schedule: Q01DX Z (ip), vehicle: saline 95 % of control | [19] 94 % of control | dose: 125.0 mg/kg/injection, schedule: Q01DX Z (ip), vehicle: saline 101 % of control | [20] 100 % of control | dose: 250.0 mg/kg/injection, schedule: Q01DX Z (ip), vehicle: saline 90 % of control | dose: 400.0 mg/kg/injection, schedule: Q01DX001 (ip), vehicle: carboxymethylcellulose (CMC) 100 % of control | dose: 500.0 mg/kg/injection, schedule: Q01DX Z (ip), vehicle: saline 100 % of control

ClCc1ccccn1
inactive: [15] 92 % of control | [16] 98 % of control | dose: 200.0 mg/kg/injection, schedule: Q01DX009 (ip), vehicle: saline 95 % of control | [17] 101 % of control | dose: 400.0 mg/kg/injection, schedule: Q01DX009 (ip), vehicle: saline 89 % of control | [18] 94 % of control

CN1CCC(Br)(C(=O)c2ccccc2)CC1
inactive: dose: 75.0 mg/kg/injection, schedule: Q01DX001 (ip), vehicle: saline 101 % of control | dose: 150.0 mg/kg/injection, schedule: Q01DX001 (ip), vehicle: saline 93 % of control

COc1cc2c(cc1OC)-c1cc3cc(OC)c(OC)cc3c(CCC(=O)O)[n+]1CC2
inactive: dose: 20.0 mg/kg/injection, schedule: Q04DX002 (ip), vehicle: Klucel (hydroxypropylcellulose) (HPC) 95 % of control | dose: 40.0 mg/kg/injection, schedule: Q04DX002 (ip), vehicle: Klucel (hydroxypropylcellulose) (HPC) 88 % of control | dose: 80.0 mg/kg/injection, schedule: Q04DX002 (ip), vehicle: Klucel (hydroxypropylcellulose) (HPC) 109 % of control

CN1CCCCC(=N\O)/C(=N/O)CCCC1
inactive: dose: 50.0 mg/kg/injection, schedule: Q01DX001 (ip), vehicle: carboxymethylcellulose (CMC) 89 % of control | [19] 89 % of control | [20] 104 % of control

Cc1ncc(CO)c(C2NOCc3nccnc32)c1O (stereo not given)
inactive: dose: 3.12 mg/kg/injection, schedule: Q01DX009 (ip), vehicle: saline 93 % of control | dose: 6.25 mg/kg/injection, schedule: Q01DX009 (ip), vehicle: saline 92 % of control | dose: 12.5 mg/kg/injection, schedule: Q01DX009 (ip), vehicle: saline 90 % of control | dose: 12.5 mg/kg/injection, schedule: Q04DX003 (ip), vehicle: saline 95 % of control

O=C(NCC(S)c1ccc(Cl)cc1)C(F)(F)F (stereo not given)
inactive: [5] 88 % of control | [6] 86 % of control

CC(C)(c1cc(Cl)c(OCCO)c(Cl)c1)c1cc(Cl)c(OCCO)c(Cl)c1
inactive: [8] 103 % of control | [9] 103 % of control | [10] 95 % of control

COc1ccccc1OCC(=O)N1CCCCC1
inactive: [1] 101 % of control | [2] 107 % of control | [3] 90 % of control
